Legend:
[1] = molecular target: Transient receptor potential cation channel subfamily V member 1 (Rattus norvegicus) (UniProt O35433); assay: Antagonist activity at rat TRPV1 receptor expressed in CHO cells assessed as decrease in capsaicin-induced intracellular 45Ca2+ uptake after 1 hr by […] analysis relative to untreated control; format: functional, cell-based
[2] = molecular target: T1, Transient receptor potential cation channel subfamily V member 1 (Rattus norvegicus, UniProt O35433); assay: Antagonist activity at rat TRPV1 receptor expressed in CHO cells assessed as decrease in capsaicin-induced intracellular 45Ca2+ uptake after 1 hr by […] analysis; format: functional, cell-based
[3] = molecular target: T2, Transient receptor potential cation channel subfamily V member 1 (Homo sapiens, UniProt Q8NER1); assay: Displacement of [3H]RTX from human TRPV1 receptor expressed in CHO cells after 60 mins by scintillation counting; format: cell-based
[4] = molecular target: T2, Transient receptor potential cation channel subfamily V member 1; assay: Antagonist activity at human TRPV1 receptor expressed in CHO cells assessed as decrease in capsaicin-induced intracellular 45Ca2+ uptake after 1 hr by […] analysis; format: functional, cell-based
[5] = molecular target: T2, Transient receptor potential cation channel subfamily V member 1; assay: Antagonist activity at human TRPV1 receptor expressed in CHO cells assessed as decrease in pH-induced intracellular 45Ca2+ uptake after 1 hr by […] analysis; format: functional, cell-based
[6] = molecular target: T1, Transient receptor potential cation channel subfamily V member 1; assay: Displacement of [3H]RTX from rat TRPV1 receptor expressed in CHO cells after 60 mins by scintillation counting; format: cell-based

Transient receptor potential cation channel subfamily V member 1 (Rattus norvegicus), sequence (O35433 whole entry): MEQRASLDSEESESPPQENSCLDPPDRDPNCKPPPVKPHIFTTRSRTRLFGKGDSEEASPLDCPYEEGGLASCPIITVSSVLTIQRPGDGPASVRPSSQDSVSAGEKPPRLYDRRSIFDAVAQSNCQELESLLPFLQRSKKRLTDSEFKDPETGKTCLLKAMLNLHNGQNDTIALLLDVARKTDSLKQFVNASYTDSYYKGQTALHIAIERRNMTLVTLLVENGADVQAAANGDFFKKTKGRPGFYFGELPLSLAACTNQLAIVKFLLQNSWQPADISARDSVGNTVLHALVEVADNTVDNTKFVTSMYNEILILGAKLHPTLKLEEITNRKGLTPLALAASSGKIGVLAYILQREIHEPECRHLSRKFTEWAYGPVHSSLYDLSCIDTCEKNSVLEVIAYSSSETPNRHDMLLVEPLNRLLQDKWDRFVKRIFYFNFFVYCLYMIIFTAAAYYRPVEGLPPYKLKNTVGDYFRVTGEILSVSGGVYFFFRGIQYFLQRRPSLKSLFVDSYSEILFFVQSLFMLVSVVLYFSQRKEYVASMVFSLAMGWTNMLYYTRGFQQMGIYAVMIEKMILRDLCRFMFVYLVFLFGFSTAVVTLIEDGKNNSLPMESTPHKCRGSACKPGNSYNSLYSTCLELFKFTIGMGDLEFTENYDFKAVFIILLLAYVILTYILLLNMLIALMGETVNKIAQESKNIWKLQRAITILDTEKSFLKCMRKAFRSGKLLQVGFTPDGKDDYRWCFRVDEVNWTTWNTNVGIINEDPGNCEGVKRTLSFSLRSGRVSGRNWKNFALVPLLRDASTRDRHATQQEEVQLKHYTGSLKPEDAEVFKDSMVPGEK
T1 sequence (O35433 whole entry): as above
T2 sequence (Q8NER1 whole entry): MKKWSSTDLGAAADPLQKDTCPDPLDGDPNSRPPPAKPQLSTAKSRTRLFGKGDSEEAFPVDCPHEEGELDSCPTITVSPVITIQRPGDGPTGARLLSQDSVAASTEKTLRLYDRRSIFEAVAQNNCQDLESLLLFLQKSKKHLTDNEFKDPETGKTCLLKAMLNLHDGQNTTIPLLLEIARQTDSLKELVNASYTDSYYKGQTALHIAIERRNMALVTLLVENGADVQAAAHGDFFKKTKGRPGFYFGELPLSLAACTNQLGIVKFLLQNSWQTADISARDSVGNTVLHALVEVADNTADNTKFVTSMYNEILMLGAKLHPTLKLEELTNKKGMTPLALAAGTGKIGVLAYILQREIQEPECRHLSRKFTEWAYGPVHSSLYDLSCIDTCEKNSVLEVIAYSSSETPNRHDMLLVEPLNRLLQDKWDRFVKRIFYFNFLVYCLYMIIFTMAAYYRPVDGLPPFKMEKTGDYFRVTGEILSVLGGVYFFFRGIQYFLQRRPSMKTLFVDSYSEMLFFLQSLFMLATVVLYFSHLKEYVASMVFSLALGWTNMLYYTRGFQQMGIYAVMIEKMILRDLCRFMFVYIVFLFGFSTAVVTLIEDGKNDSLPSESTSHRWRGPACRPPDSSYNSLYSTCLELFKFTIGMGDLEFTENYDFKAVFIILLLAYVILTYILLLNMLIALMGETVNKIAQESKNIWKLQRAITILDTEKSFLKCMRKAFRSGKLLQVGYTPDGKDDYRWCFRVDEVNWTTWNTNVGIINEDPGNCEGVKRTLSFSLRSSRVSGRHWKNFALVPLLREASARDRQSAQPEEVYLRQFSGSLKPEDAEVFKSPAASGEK

| Structure (SMILES) | Efficacy [1] [%] | Ki [2] [nM] | Ki [3] [nM] | Ki [4] [nM] | Ki [5] [nM] | Ki ([6]; read-out: Ki) [nM] | other results |
| --- | --- | --- | --- | --- | --- | --- | --- |
| COc1cc(CNC(=S)NCc2ccc(C(C)(C)C)cc2)ccc1NS(C)(=O)=O | 84 | – | – | – | – | – | – |
| CC(C(=O)NCc1ccc(C(C)(C)C)cc1)c1ccc(NS(C)(=O)=O)c(C(=O)NCc2ccccc2)c1 (centres undefined) | 23 | – | – | – | – | – | – |
| CC(C(=O)NCc1ccc(C(C)(C)C)cc1)c1ccc(NS(C)(=O)=O)c(N2CCOCC2)c1 (centres undefined) | – | – | – | – | – | – | Ki ([6]; cho): Active |
| CC(C(=O)NCc1ccc(C(C)(C)C)cc1)c1ccc(NS(C)(=O)=O)c(N2CCN(C(=O)OC(C)(C)C)CC2)c1 (centres undefined) | 13 | – | – | – | – | 7000 | – |
| CC(C(=O)NCc1ccc(C(C)(C)C)cc1)c1ccc(NS(C)(=O)=O)c(N2CCCCC2)c1 (centres undefined) | – | – | – | – | – | – | Ki ([6]; cho): Active |

Now from value to compound, other results behind:

| Efficacy [1] [%] | Ki [2] [nM] | Ki [3] [nM] | Ki [4] [nM] | Ki [5] [nM] | Ki ([6]; read-out: Ki) [nM] | Structure (SMILES) | other results |
| --- | --- | --- | --- | --- | --- | --- | --- |
| – | 4.16 | 15.8 | 0.49 | 8.3 | 24.4 | C[C@H](C(=O)NCc1ccc(C(C)(C)C)cc1)c1ccc(NS(C)(=O)=O)c(F)c1 | – |
| – | 186 | 2590 | 217 | 440 | 750 | C[C@@H](C(=O)NCc1ccc(C(C)(C)C)cc1)c1ccc(NS(C)(=O)=O)c(F)c1 | – |
| 16 | – | – | – | – | – | CC(C(=O)NCc1ccc(C(C)(C)C)cc1)c1ccc(NS(C)(=O)=O)c(C(=O)OC(C)(C)C)c1 (centres undefined) | – |
| – | 18.9 | – | – | – | 32.8 | Cc1cc(C(C)C(=O)NCc2ccc(C(C)(C)C)cc2)ccc1NS(C)(=O)=O (centres undefined) | – |
| – | 7.6 | 89 | 5.1 | 12.7 | 46.2 | CC(C(=O)NCc1ccc(C(C)(C)C)cc1)c1ccc(NS(C)(=O)=O)c(F)c1 (racemic) | – |

From ChEMBL document CHEMBL2040748, “N-4-t-Butylbenzyl 2-(4-methylsulfonylaminophenyl) propanamide TRPV1 antagonists: Structure-activity relationships in the A-region” (Bioorg Med Chem, 2012)
